Read-outs that look alike come from different tables or passages of the source.
What was measured:
[1] = test system: T. cruzi Tulahuen strain amastigotes; assay: Trypanocidal activity against amastigote forms in LLCMK2 cells, Tulahuen strain; type: cell-based; settings: Trypanosoma cruzi; for killing at 32 µM: LLC-MK2, 120 h, amastigote lysis, 5 days, read-out: %cell lysis at 32 μM ama Tula; for EC50: LLC-MK2
Experimental: (§1) The assays against amastigote forms were performed in LLCMK2 cells. Previously, the cells were cultivated in 96-wells microplates (10^3 cells/well). […] After this, the microplates were incubated at 37°C, in CO2 atmosphere, for 5 days. Then, 10 μL of FluoReporter lacZ/Galactosidase Quantitative Kit (Life Technologies) were added and after 30 minutes the fluorometric reaction was read in a microplate reader (Synergy H1, Biotek) at 386 nm excitation and 448 nm emission. For both assays the percentage of parasite lysis was determined from the following formula: %lysis = 100 –{[(X-PC)/(PC-NC)]x100}, where the optical density values of the samples (X), the positive controls (PC) and negative controls (NC) were used. Culture medium was used as positive control (PC) and medium with 0.6% DMSO (v/v) as negative control (NC). All assays were performed in triplicate with two independent experiments.

[2] = test system: T. cruzi CL-Brener strain amastigotes; assay: Trypanocidal activity against amastigote forms in LLCMK2 cells, CL-Brener strain; type: cell-based; settings: Trypanosoma cruzi, LLC-MK2, 120 h, amastigote lysis, 5 days, read-out: %cell lysis at 32 μM ama Brener
Experimental: as §1

LLCMK2 cells = assay: Lysis of LLCMK2 host cells; type: cell-based; settings: Macaca mulatta, LLC-MK2, 32 μM, read-out: %cell lysis at 32 μM LLCMK2
[3] = Lysis of LLCMK2 host cells; type: cell-based; settings: rhesus monkey, footnote of Table 3, cell line not stated
[4] = test system: Balb-c 3T3 clone A31 cells; assay: MTT cytotoxicity assay using mouse fibroblast cells; type: cell-based; settings: 250 μM, Balb-c 3T3 cells, MTT, 24, 48 and 72 h, benznidazole as control
Experimental: All compounds were subjected to the MTT colorimetric assay using Balb-c 3T3 clone A31 cells (mouse fibroblast cells) acquired from the Rio de Janeiro Cell Bank (BCRJ code 0047). Inhibition values were determined in the cell-based assay as previously described. Briefly, cells were cultured at 37°C in an atmosphere of 5% CO2 using DMEM medium (Cultilab, Campinas-SP, Brazil) supplemented with 3.5 g glucose (Sigma-Aldrich), 1% penicillin/streptomycin solution and 10% FBS (Cultilab). Cells were plated at a concentration of 10^5 cell/mL in 96-well plates and incubated for 24 h. All compounds were freshly diluted from 50 mM DMSO stock solutions to obtain the final concentration of 250 μM and added to each well by replacing the medium. The cell viability was assessed during 24, 48 and 72 h using the MTT (Sigma-Aldrich) reagent, with an incubation time of 3 h. […] The readout was obtained using Biotek Synergy HT plate reader at 570 nm. Benznidazole was used as control. This assay was done in quatruplicate in two independent experiments. Statistical analyses were made in GraphPad Prism 5. Dunnett’s multiple comparison tests were performed using benznidazole as the standard compound for the ordinary ANOVA analysis using 95% confidence interval.

cruzain = target: T1, cruzain (Trypanosoma cruzi, UniProt P25779); assay: biochemical; settings: 37°C, pH 5.5, substrate Z-FR-AMC;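 note: fluorometric read-out of substrate hydrolysis at excitation 355 nm and emission 460 nm, initial rates over 5 min, Ki from nonlinear kinetic fits, duplicate runs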
T1 construct: made in house
T1 sequence (P25779 123-337 limits assumed): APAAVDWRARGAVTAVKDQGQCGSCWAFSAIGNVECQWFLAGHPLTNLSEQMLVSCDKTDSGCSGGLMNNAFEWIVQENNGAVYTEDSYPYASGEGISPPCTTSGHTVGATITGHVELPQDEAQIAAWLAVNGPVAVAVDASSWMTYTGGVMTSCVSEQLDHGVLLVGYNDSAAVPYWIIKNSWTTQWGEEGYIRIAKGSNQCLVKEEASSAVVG
Experimental: Enzyme kinetic assays were carried out at 37°C in 200 L of a solution containing 100 mM acetate buffer pH 5.5, 300 mM NaCl, 5 mM DTT (dithiothreitol), 5% v/v DMSO (dimethyl sulfoxide), 0.01% v/v Triton X-100 and 0.15 nM cruzain, using Corning® 96-well black flat bottom microplates. The rate of the reaction was monitored using a Biotek Synergy HT plate reader through the fluorescence emission at 460 nm (excitation at 355 nm) due to the hydrolysis of the substrate Z-Phe-Arg-7-amido-4-methylcoumarin (Z-FR-AMC, Sigma-Aldrich). The enzyme stock aliquot was rapidly thawed at 37°C and kept on ice until activation, in which it was incubated for 20 min. in the assay buffer (100 mM acetate pH 5.5 and 5 mM DTT) followed by additional 2 min. incubation with inhibitors before the reaction was started by the addition of the substrate.
Visual inspection and a pre-reading of plate wells were performed to check for possible precipitation and background fluorescence, respectively. Fluorescence emission spectra were also recorded for all inhibitors, using the same excitation wavelength (355 nm) as for the fluorometric assay. […] The reaction was started by the addition of varying concentrations of the substrate and the wells monitored for a total of 5 minutes of reaction. The initial velocities of the substrate hydrolysis under first-order reaction were calculated by Gen5 Biotek software based on the linear-regression coefficient from the fit to data of Relative Fluorescence Unit (mRFU) as a function of time (min).
Each experiment was performed in duplicates for each compound being tested. […] All inhibitors were evaluated in two different concentrations, which were chosen based on a previous screening (percentage of inhibition) at 1.7 μM substrate (~K M). […] SigmaPlot (v. 10.0) was employed for the non-linear fit and the kinetic parameters determination.

[5] = amastigote, T. cruzi Tulahuen strain, read-out: pEC50 ama Tula (converted)

For `O=C(Cn1ccnc1[N+](=O)[O-])NCc1ccccc1` [Benznidazole, reference compound], the killing at 32 µM ([1]; T. cruzi Tulahuen strain) was 78 ± 3%, the EC50 [1, 5] was 1.58 µM and the killing at 32 µM [2] was 29 ± 2%. The cytotoxicity at 32 µM (LLCMK2 cells) was 31 ± 2% and the CC50 at 5 days [3] was 353 µM.
In the case of `N#CCNC(=O)[C@H](Cc1c[nH]c2ccccc12)NC(=O)c1ccccc1` [Compound 12, (2S)-N-(cyanomethyl)-3-(1H-indol-3-yl)-2-(phenylformamido)propanamide], the cytotoxicity [4] is reported as “same range of cytotoxicity when compared to benznidazole”, the killing at 32 µM ([1]; T. cruzi Tulahuen strain) is reported as 60 ± 5% and the EC50 ([1]; against the parasite (amastigote, Tulahuen strain), read-out: EC50) is reported as 28 µM. It also gave an EC50 [1, 5] of 25.1 µM, a melting point of 158 to 159 °C and a killing at 32 µM [2] of 17 ± 1%. It also gave a Ki (cruzain) of 0.398 µM and a cytotoxicity at 32 µM (LLCMK2 cells) of 34 ± 5%.

From paper PMC4501791, “Molecular Design, Synthesis and Trypanocidal Activity of Dipeptidyl Nitriles as Cruzain Inhibitors” (PLoS Neglected Tropical Diseases, 2015)
